What all share (experiment): growth of human tumour cells (NCI), 48 h
For assay [1], the system named is HS 578T breast.
The subject of assay [2] is OVCAR-3 ovarian.
Assay [3] has as its system SNB-75 CNS.
In assay [4] the test system is RPMI-8226 leukemia.
Assay [5] concerns CCRF-CEM leukemia.
Assay [6] relates to SK-MEL-2 melanoma.
For assay [7], the system named is ACHN renal.
For assay [8], the system named is LOX IMVI melanoma.
In assay [9] the test system is K-562 leukemia.
For assay [10], the system named is HCC-2998 colon.

This note sets out measurements from PubChem BioAssay (NCI).

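Five concentrations, 48 hours, 96-well plates. GI50: concentration for 50% inhibition of growth. TGI is the concentration that stops growth completely.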

On to `COc1ccc(/C(Cl)=C(\C=O)c2ccc([N+](=O)[O-])cc2)cc1OC`, for which the TGI in assay [1] is greater than 100 µM; in [2] it was 38 µM; in assay [3] it was 20 µM; in assay [4] it was greater than 25.8 µM; in assay [5], greater than 24.7 µM; in [6], greater than 77.1 µM. The TGI in assay [7] was 25 µM; in [8], 12.4 µM; in assay [9], greater than 93.3 µM.
In the case of `OCCCN=NNc1ccc(-c2nc3ccccc3[nH]2)cc1`, the GI50 was 4.54 µM in assay [1]; 2.31 µM in assay [2]; 6.07 µM in assay [3]; 34.2 µM in [4]; 0.644 µM in assay [5]; 14.5 µM in assay [6]. In addition, the GI50 was 24.4 µM in assay [7] and 16.6 µM in [9]. Further, the TGI in assay [1] was 21.9 µM; in assay [2], 5.13 µM; in assay [3] it was 38.6 µM; in assay [4], greater than 100 µM; in assay [5], greater than 100 µM; in [6] it was 48.1 µM. Moreover, the TGI in [7] was 64 µM; in [9], 84.9 µM.
`Cc1cc(N(CCC#N)S(C)(=O)=O)ccc1C=O`: the TGI in assay [10], in assay [2], in [3], in assay [4], in assay [5] and in [6] was greater than 100 µM throughout. For the same compound, the TGI in assay [7], in assay [8] and in [9] was greater than 100 µM each time.
In the case of `C=C/C=C(\NC(=O)C(Cl)(Cl)Cl)[Si](C)(C)C`, the TGI in assay [10], in assay [2], in assay [3], in [4], in assay [5] and in [6] was greater than 100 µM in each case. Also, the TGI in [7], in assay [8] and in assay [9] was greater than 100 µM each time.
On to `COc1ccc2oc3c4c2c1CCC4CCC3=O` (configuration not stated), for which the TGI in assay [10], in assay [2], in assay [3], in [4], in assay [5] and in assay [6] was greater than 100 µM in each case. In addition, the TGI in [7], in [8] and in [9] was greater than 100 µM in each case.
Turning to `COC1=CC(O)(CC(N)=O)c2ccccc2C1=O` (configuration not stated), the TGI in assay [10], in assay [2], in assay [3], in assay [4], in [5] and in assay [6] was greater than 100 µM in each case. Besides, the TGI in assay [7], in assay [8] and in assay [9] was greater than 100 µM each time.
On to `COC(=O)c1ccc2c(c1)nc(-c1cc3ccccc3[nH]c1=O)n2-c1cc(C(C)(C)C)[nH]n1`, for which the GI50 is 0.574 µM in assay [1]; 4.5 µM in assay [2]; 5.42 µM in assay [3]; 0.443 µM in assay [4]; 0.853 µM in assay [5]; 2.82 µM in assay [6]. Moreover, the GI50 in assay [7] is greater than 100 µM; in assay [9], 1.7 µM. Besides, the TGI in [1] was greater than 58.4 µM; in assay [2] it was greater than 100 µM; in assay [3], 41.5 µM; in assay [5], greater than 100 µM; in assay [6], greater than 100 µM; in assay [7], greater than 100 µM. Also, in assay [9], the TGI is greater than 100 µM.
Turning to `O=C(OCc1ccccc1)N1CCN(/[N+]([O-])=N/Oc2ccc([N+](=O)[O-])cc2[N+](=O)[O-])CC1`, the GI50 in assay [1] is 32.4 µM; in assay [2], 3.01 µM; in [3] it was 15.6 µM; in [4], 2.23 µM; in assay [6] it was 19.1 µM; in assay [7] it was 7.12 µM. In addition, the GI50 in [9] was 4.07 µM. Also, the TGI in [1] was determined as 97.6 µM; in assay [2], 6.96 µM; in [3], 32.7 µM; in assay [4] it was 6.1 µM; in assay [6], 57 µM; in [7], 26.6 µM. In assay [9], this compound returned a TGI greater than 100 µM.
On to `O=C1OCC(c2cccs2)=C1Cl`, for which the GI50 was 39 µM in assay [1]; 44.8 µM in assay [2]; 75.9 µM in assay [3]; 32.2 µM in [4]; 84.1 µM in [5]; greater than 100 µM in assay [6]. For the same compound, the GI50 in assay [7] was 56.7 µM; in assay [8], 89.5 µM; in assay [9], greater than 100 µM. Further, the TGI in [1], in assay [2], in assay [3], in [4], in [5] and in assay [6] was greater than 100 µM in each case. In addition, the TGI in assay [7], in assay [8] and in assay [9] was greater than 100 µM throughout.
For `C[C@]12CCC[C@H](Cl)C1(O)C[C@H](C(=O)O)CC2` (some centres not stated), the TGI in assay [10], in assay [2], in assay [3], in [4], in [5] and in assay [6] was greater than 100 µM each time. Further, the TGI in assay [7], in assay [8] and in assay [9] was greater than 100 µM in each case.
